Assay [1] deals with human CB1 receptor (hCB1) (Homo sapiens, UniProt P21554). As to the kind of experiment: cell-based. The assay is classed as cell-based. The note with it: for +/− HCB1: agonist or inverse agonist at hCB1. The gist of the method: (§1)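 Agonism or inverse agonism was assessed as change in intracellular cAMP in CHO-K1 cells expressing human CB1 or rat CB2 (genomic DNA, pcDNA3.1).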
The target of another assay is T1, rat CB2 receptor (rCB2) (Rattus norvegicus, UniProt Q9QZN9).
T1 sequence (Q9QZN9 1-360): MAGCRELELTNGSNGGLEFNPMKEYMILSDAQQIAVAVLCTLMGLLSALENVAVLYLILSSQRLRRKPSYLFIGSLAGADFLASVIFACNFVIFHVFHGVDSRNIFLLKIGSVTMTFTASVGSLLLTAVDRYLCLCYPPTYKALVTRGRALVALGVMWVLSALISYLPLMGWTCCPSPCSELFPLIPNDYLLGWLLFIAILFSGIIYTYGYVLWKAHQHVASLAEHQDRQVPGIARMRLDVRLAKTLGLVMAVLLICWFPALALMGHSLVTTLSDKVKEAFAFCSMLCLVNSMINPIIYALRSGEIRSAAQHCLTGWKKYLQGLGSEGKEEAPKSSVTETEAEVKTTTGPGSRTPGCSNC
The assay is described as follows: cell-based. The assay is classed as cell-based. To be noted: for +/− RCB2: agonist or inverse agonist at rCB2. In short, it runs like this: as §1

Where two headings read alike, the source gives them in different places.

The EC50 is the concentration needed to bring the measured effect to its halfway point.

Chain of human CB1 receptor (hCB1) (P21554 whole entry): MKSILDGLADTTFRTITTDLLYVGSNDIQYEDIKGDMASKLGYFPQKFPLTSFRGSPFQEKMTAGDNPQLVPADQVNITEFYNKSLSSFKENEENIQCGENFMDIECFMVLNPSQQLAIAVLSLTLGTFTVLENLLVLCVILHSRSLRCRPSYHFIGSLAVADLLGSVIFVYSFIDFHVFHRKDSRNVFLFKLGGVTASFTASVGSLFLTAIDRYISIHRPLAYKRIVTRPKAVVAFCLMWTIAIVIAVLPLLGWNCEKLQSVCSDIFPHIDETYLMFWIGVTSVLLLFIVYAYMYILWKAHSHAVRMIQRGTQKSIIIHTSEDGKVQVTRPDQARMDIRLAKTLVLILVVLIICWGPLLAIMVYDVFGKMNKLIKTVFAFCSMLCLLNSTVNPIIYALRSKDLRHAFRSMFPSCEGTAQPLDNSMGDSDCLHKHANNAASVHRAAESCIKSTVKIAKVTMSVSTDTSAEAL

Consider `CNC(=O)[C@@H](NC(=O)c1nc(-c2cc(C(N)=O)ccc2F)n2c1CN(C)CCC2)C(C)(C)C` [Compound 405, (S)-3-(5-carbamoyl-2-fluorophenyl)-N-(3,3-dimethyl-1-(methylamino)-1-oxobutan-2-yl)-8-methyl-6,7,8,9-tetrahydro-5H-imidazo[1,5-a][1,4]diazepine-1-carboxamide], for which the EC50 in assay [1] (groups >100 nM-10 μM and >10 μM, cAMP, CHO-K1 hCB1, read-out: EC50 HCB1) is > 10000 nM; on rat CB2 receptor (rCB2) (groups >100 nM-10 μM and >10 μM, cAMP, CHO-K1 rCB2, read-out: EC50 RCB2), > 10000 nM.

On to `CNC(=O)[C@H](CC(C)C)NC(=O)c1nc(C2=CCCCO2)n2c1CN(C)CC2` [Compound 280, (S)-3-(3,4-dihydro-2H-pyran-6-yl)-7-methyl-N-(4-methyl-1-(methylamino)-1-oxopentan-2-yl)-5,6,7,8-tetrahydroimidazo[1,5-a]pyrazine-1-carboxamide], for which the EC50 in assay [1] is > 10000 nM. For the same molecule, the “+/− RCB2” value at rat CB2 receptor (rCB2) is “+”.

`CC(C)CN1CCn2c(-c3ccccc3)nc(C(=O)Nc3ccccc3)c2C1` [Compound 150, 7-isobutyl-N,3-diphenyl-5,6,7,8-tetrahydroimidazo[1,5-a]pyrazine-1-carboxamide]: in assay [1], the EC50 is > 10000 nM. The “+/− RCB2” value on rat CB2 receptor (rCB2) was “−”.

On to `CNC(=O)[C@@H](NC(=O)c1nc(C2CCCCO2)n2c1CN(C)CCC2)C(C)(C)C` (stereo partly drawn) [Compound 504, N-((S)-3,3-dimethyl-1-(methylamino)-1-oxobutan-2-yl)-8-methyl-3-(tetrahydro-2H-pyran-2-yl)-6,7,8,9-tetrahydro-5H-imidazo[1,5-a][1,4]diazepine-1-carboxamide], for which, in assay [1], the EC50 was > 10000 nM. Besides, the “+/− RCB2” value at rat CB2 receptor (rCB2) is “+”.

As to `CC(C)C[C@H](NC(=O)c1nc(-c2cccc(F)c2)n2c1CN(C)CCC2)C(N)=O` [Compound 566, (S)-N-(1-amino-4-methyl-1-oxopentan-2-yl)-3-(3-fluorophenyl)-8-methyl-6,7,8,9-tetrahydro-5H-imidazo[1,5-a][1,4]diazepine-1-carboxamide], the EC50 in assay [1] is > 10000 nM. In addition, the “+/− RCB2” value at rat CB2 receptor (rCB2) is given as “+”.

Consider `CNC(=O)[C@@H](NC(=O)c1nc(-c2ccncc2)n2c1CN(C)CCC2)C(C)(C)C` [Compound 402, (S)-N-(3,3-dimethyl-1-(methylamino)-1-oxobutan-2-yl)-8-methyl-3-(pyridin-4-yl)-6,7,8,9-tetrahydro-5H-imidazo[1,5-a][1,4]diazepine-1-carboxamide], for which the EC50 in assay [1] is > 10000 nM. In addition, the “+/− RCB2” value on rat CB2 receptor (rCB2) is “+”.

Regarding `CNC(=O)c1cc(-c2nc(C(=O)N[C@H](C(=O)NC)C(C)(C)C)c3n2CCCN(C)C3)ccc1F` [Compound 406, (S)-N-(3,3-dimethyl-1-(methylamino)-1-oxobutan-2-yl)-3-(4-fluoro-3-(methylcarbamoyl)phenyl)-8-methyl-6,7,8,9-tetrahydro-5H-imidazo[1,5-a][1,4]diazepine-1-carboxamide], in assay [1], the EC50 was > 10000 nM. Further, the “+/− RCB2” value on rat CB2 receptor (rCB2) is “+”.

Consider `CN1CCCn2c(-c3ccccc3)nc(C(=O)N[C@H](C(=O)NCCF)C(C)(C)C)c2C1` [Compound 476, (S)-N-(1-(2-fluoroethylamino)-3,3-dimethyl-1-oxobutan-2-yl)-8-methyl-3-phenyl-6,7,8,9-tetrahydro-5H-imidazo[1,5-a][1,4]diazepine-1-carboxamide], for which, in assay [1], the EC50 is > 10000 nM. In addition, the “+/− RCB2” value at rat CB2 receptor (rCB2) is “+”.

`CNC(=O)[C@@H](NC(=O)c1nc(-c2ccccc2)n2c1CN(c1ncccn1)CC2)C(C)(C)C` [Compound 298, N-(3,3-dimethyl-1-(methylamino)-1-oxobutan-2-yl)-3-phenyl-7-(pyrimidin-2-yl)-5,6,7,8-tetrahydroimidazo[1,5-a]pyrazine-1-carboxamide]: in assay [1], the “+/− HCB1” value is “+”. Further, the “+/− RCB2” value at rat CB2 receptor (rCB2) is “+”.

Consider `CN1CCCn2c(-c3cc(F)ccc3F)nc(C(=O)N[C@H](C(=O)N(C)C)C(C)(C)C)c2C1` [Compound 562, (S)-3-(2,5-difluorophenyl)-N-(1-(dimethylamino)-3,3-dimethyl-1-oxobutan-2-yl)-8-methyl-6,7,8,9-tetrahydro-5H-imidazo[1,5-a][1,4]diazepine-1-carboxamide], for which the EC50 in assay [1] is > 10000 nM. In addition, the “+/− RCB2” value at rat CB2 receptor (rCB2) is given as “−”.

Regarding `CN1CCCn2c(-c3ccc(F)c(Cl)c3)nc(C(=O)N[C@@H](CC(C)(C)C)C(N)=O)c2C1` [Compound 587, (S)-N-(1-amino-4,4-dimethyl-1-oxopentan-2-yl)-3-(3-chloro-4-fluorophenyl)-8-methyl-6,7,8,9-tetrahydro-5H-imidazo[1,5-a][1,4]diazepine-1-carboxamide], in assay [1], the “+/− HCB1” value is “+”. For the same molecule, on rat CB2 receptor (rCB2), the “+/− RCB2” value is listed as “+”.

As for `CNC(=O)[C@@H](NC(=O)c1nc(-c2ccc(C)c(F)c2)n2c1CN(C)CCC2)C(C)(C)C` [Compound 360, (S)-N-(3,3-dimethyl-1-(methylamino)-1-oxobutan-2-yl)-3-(3-fluoro-4-methylphenyl)-8-methyl-6,7,8,9-tetrahydro-5H-imidazo[1,5-a][1,4]diazepine-1-carboxamide], the EC50 (in assay [1]; at rat CB2 receptor (rCB2)) was > 10000 nM throughout.

Regarding `CNC(=O)[C@@H](NC(=O)c1nc(C2=CCCCCC2)n2c1CN(C)CC2)C(C)(C)C` [Compound 272, (S,E)-3-cycloheptenyl-N-(3,3-dimethyl-1-(methylamino)-1-oxobutan-2-yl)-7-methyl-5,6,7,8-tetrahydroimidazo[1,5-a]pyrazine-1-carboxamide], the “+/− HCB1” value in assay [1] is “+”. Besides, the “+/− RCB2” value on rat CB2 receptor (rCB2) is given as “+”.

For the molecule `CNC(=O)[C@@H](NC(=O)c1nc(-c2ccc(Cl)c(F)c2)n2c1CN(C)CCC2)C(C)(C)C` [Compound 373], the EC50 in assay [1] was > 10000 nM. Moreover, on rat CB2 receptor (rCB2), the “+/− RCB2” value is recorded as “+”.

Turning to `CN1CCCn2c(-c3ccc(Cl)c(F)c3)nc(C(=O)N[C@H](C(=O)N(C)C)C(C)(C)C)c2C1` [Compound 560, (S)-3-(4-chloro-3-fluorophenyl)-N-(1-(dimethylamino)-3,3-dimethyl-1-oxobutan-2-yl)-8-methyl-6,7,8,9-tetrahydro-5H-imidazo[1,5-a][1,4]diazepine-1-carboxamide], the “+/− HCB1” value in assay [1] is “+”. Moreover, the “+/− RCB2” value at rat CB2 receptor (rCB2) is reported as “+”.

As to `COC(=O)[C@@H](NC(=O)c1nc(-c2ccccc2)n2c1CN(C(C)C)CCC2)C(C)(C)C` [Compound 468, (S)-methyl 2-(8-isopropyl-3-phenyl-6,7,8,9-tetrahydro-5H-imidazo[1,5-a][1,4]diazepine-1-carboxamido)-3,3-dimethylbutanoate], in assay [1], the EC50 is > 10000 nM. Further, the “+/− RCB2” value on rat CB2 receptor (rCB2) was “−”.

For `CNC(=O)[C@@H](NC(=O)c1nc(-c2cccc(Cl)c2)n2c1CN(C)CCC2)C(C)(C)C` [Compound 433, (S)-3-(3-chlorophenyl)-N-(3,3-dimethyl-1-(methylamino)-1-oxobutan-2-yl)-8-methyl-6,7,8,9-tetrahydro-5H-imidazo[1,5-a][1,4]diazepine-1-carboxamide], the EC50 (in assay [1]; at rat CB2 receptor (rCB2)) was > 10000 nM in each case.

As to `CN1CCCn2c(-c3ccc(F)c(F)c3)nc(C(=O)N[C@@H](CC(C)(C)C)C(N)=O)c2C1` [Compound 586, (S)-N-(1-amino-4,4-dimethyl-1-oxopentan-2-yl)-3-(3,4-difluorophenyl)-8-methyl-6,7,8,9-tetrahydro-5H-imidazo[1,5-a][1,4]diazepine-1-carboxamide], in assay [1], the “+/− HCB1” value was “+”. Besides, the “+/− RCB2” value on rat CB2 receptor (rCB2) is “+”.

In the case of `CC(C)(C)OC(=O)N1CCn2c(-c3ccccc3)nc(C(=O)Nc3ccccc3)c2C1` [Compound 32, tert-butyl 3-phenyl-1-(phenylcarbamoyl)-5,6-dihydroimidazo[1,5-a]pyrazine-7(8H)-carboxylate], the half-maximal effective concentration (EC50) in assay [1] is > 10000 nM. For the same molecule, at rat CB2 receptor (rCB2), the “+/− RCB2” value was “−”.

`CNC(=O)[C@@H](NC(=O)c1nc(-c2cccc(C)c2)n2c1CNCC2)C(C)(C)C` [Compound 8, (S)-N-(3,3-dimethyl-1-(methylamino)-1-oxobutan-2-yl)-3-m-tolyl-5,6,7,8-tetrahydroimidazo[1,5-a]pyrazine-1-carboxamide]: the EC50 in assay [1] is > 10000 nM. Further, the “+/− RCB2” value at rat CB2 receptor (rCB2) is recorded as “−”.

Regarding `CN1CCCn2c(-c3ccccc3)nc(C(=O)N[C@H](C(=O)NCC3CCOCC3)C(C)(C)C)c2C1` [Compound 479, (S)-N-(3,3-dimethyl-1-oxo-1-((tetrahydro-2H-pyran-4-yl)methylamino)butan-2-yl)-8-methyl-3-phenyl-6,7,8,9-tetrahydro-5H-imidazo[1,5-a][1,4]diazepine-1-carboxamide], in assay [1], the EC50 was > 10000 nM. Moreover, on rat CB2 receptor (rCB2), the “+/− RCB2” value was “+”.

On to `CNC(=O)[C@@H](NC(=O)c1nc(CCC2CCCCC2)n2c1CN(C)CCC2)C(C)(C)C` [Compound 493, (S)-3-(2-cyclohexylethyl)-N-(3,3-dimethyl-1-(methylamino)-1-oxobutan-2-yl)-8-methyl-6,7,8,9-tetrahydro-5H-imidazo[1,5-a][1,4]diazepine-1-carboxamide], for which the EC50 in assay [1] was > 10000 nM. Also, the “+/− RCB2” value at rat CB2 receptor (rCB2) was “−”.

Consider `Cc1nnc([C@@H](NC(=O)c2nc(-c3ccccc3)n3c2CN(C)CC3)C(C)(C)C)o1` [Compound 201, (S)-N-(2,2-dimethyl-1-(5-methyl-1,3,4-oxadiazol-2-yl)propyl)-7-methyl-3-phenyl-5,6,7,8-tetrahydroimidazo[1,5-a]pyrazine-1-carboxamide], for which the EC50 in assay [1] is > 10000 nM. The “+/− RCB2” value at rat CB2 receptor (rCB2) is “+”.

For the origin of these results see patent US7517874B2 (priority 2007, dated 2009).
